Measured values taken from patent publication US20250122529A1, “POLYCISTRONIC VECTORS FOR CELL-BASED THERAPIES” (Sana Biotechnology, Inc., priority 2021, published 2025).

Tests used:
[1] = test system: CyD-CD47 clones 2-G09 and 2-G11; experiment: CyD kill curve with 5-FC (cell count); assay type: cell-based
Source text: Hollow triangles represent iPSCs; filled triangles represent differentiated cells.
The bicistronic vector was used to transduce induced pluripotent stem cells (iPSCs), which were then allowed to differentiate. Differentiation of CyD-CD47-expressing clones in 2D was not affected by safety switch expression (data not shown here).

[2] = test system: CD47-HSVtk clones; experiment: HSVtk kill curve with GCV (flow cytometry with counting beads); assay type: cell-based; conditions: various amounts of GCV; after three days
Source text: Calculated IC50 and R square (R^2) values for each clone are also shown.

[3] = test system: control clone; experiment: GCV toxicity in control clone; assay type: cell-based; conditions: tested dose range
[4] = test system: CD47-HSVtk clones; conditions: range reported in literature; IC50s in CD47-HSVtk clones generally comparable; cited from earlier work
[5] = molecular target: CD22 (Homo sapiens, UniProt P20273); conditions: affinity matured variant; read-out: CD22 binding affinity; cited from earlier work

Question: Which killing ([1]; CyD in the presence of 5-FC, differentiated cells, clones 2-G09 and 2-G11) does the source give for Nc1nc(=O)[nH]cc1F [Construct 5-FC, 5-fluorocytosine] here?
Answer: more than 99%

Question: And the IC50 ([1]; differentiated cells relative to iPSCs)?
Answer: comparable IC50s relative to iPSCs

Question: Which “HSVtk killing (viable cell count %)” value [2] does the source give for Nc1nc(O)c2ncn(COC(CO)CO)c2n1 [GCV, ganciclovir] here?
Answer: dose-response HSVtk killing was achieved

Question: And the GCV toxicity [3]?
Answer: no GCV toxicity

Question: What about the IC50 [4] of the same molecule?
Answer: 10 to 100 nM

B1: m971-L7: affinity matured variant of m971 (protein)
scFv: QVQLQQSGPGMVKPSQTLSLTCAISGDSVSSNSVAWNWIRQSPSRGLEWLGRTYYRSTWYNDYAVSMKSRITINPDTNKNQFSLQLNSVTPEDTAVYYCAREVTGDLEDAFDIWGQGTMVTVSSGGGGSGGGGSGGGGSDIQMIQSPSSLSASVGDRVTITCRASQTIWSYLNWYRQRPGEAPNLLIYAASSLQSGVPSRFSGRGSGTDFTLTISSLQAEDFATYYCQQSYSIPQTFGQGTKLEIK
modifications: Synthetic: Anti-CD22 m971-L7 scFv entire sequence, with 3xG4S linker
Question: For B1, which Kd [5] is on record?
Answer: < 0.05 nM
